In publication PMC6120666 (The EMBO Journal, 2018):

Key:
Assay in all cases: Drug affinity chromatography with c-ponatinib and LC-MS/MS (ponatinib interactome)
Type in all cases: binding
[1] = target: T1, proteins of U2OS cell lysate (Homo sapiens, UniProt P09493); conditions: captured protein TPM1, Rank 202
T1 construct: Proteins enriched by c-ponatinib from U2OS cell lysate; endogenous in cells; host or cells: U2OS cell lysate
Procedure, shortened: (§1)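 U2OS cell lysate in NP-40 lysis buffer (2 mg protein per pulldown) was incubated with amine-derivatized NHS beads for 2 h at 4 °C. Bound proteins were washed, eluted with 100 mM formic acid, reduced, alkylated and trypsin-digested, then identified by nano-UPLC–MS/MS on Orbitrap instruments with a 60 min gradient.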

[2] = target: T2, proteins of U2OS cell lysate (Homo sapiens, UniProt P62826); conditions: captured protein RAN, Rank 147
T2 construct: Proteins enriched by c-ponatinib from U2OS cell lysate; endogenous in cells; host or cells: U2OS cell lysate
Procedure, shortened: as §1

[3] = target: T3, proteins of U2OS cell lysate (Homo sapiens, UniProt Q9UHB6); conditions: captured protein LIMA1, Rank 120
T3 construct: Proteins enriched by c-ponatinib from U2OS cell lysate; endogenous in cells; host or cells: U2OS cell lysate
Procedure, shortened: as §1

[4] = target: T4, proteins of U2OS cell lysate (Homo sapiens, UniProt O14974); conditions: PPP1R12A, Protein phosphatase 1 regulatory subunit 12A
T4 construct: Proteins enriched by c-ponatinib from U2OS cell lysate; endogenous in cells; host or cells: U2OS cell lysate
Procedure, shortened: as §1

[5] = target: T5, proteins of U2OS cell lysate (Homo sapiens, UniProt O95232); conditions: LUC7L3, Luc7-like protein 3
T5 construct: Proteins enriched by c-ponatinib from U2OS cell lysate; endogenous in cells; host or cells: U2OS cell lysate
Procedure, shortened: as §1

[6] = target: T6, proteins of U2OS cell lysate (Homo sapiens, UniProt P04792); conditions: HSPB1, Heat shock protein beta-1
T6 construct: Proteins enriched by c-ponatinib from U2OS cell lysate; endogenous in cells; host or cells: U2OS cell lysate
Procedure, shortened: as §1

[7] = target: T7, proteins of U2OS cell lysate (Homo sapiens, UniProt P04843); conditions: RPN1, Dolichyl-diphosphooligosaccharide--protein glycosyltransferase subunit 1
T7 construct: Proteins enriched by c-ponatinib from U2OS cell lysate; endogenous in cells; host or cells: U2OS cell lysate
Procedure, shortened: as §1

[8] = target: T8, proteins of U2OS cell lysate (Homo sapiens, UniProt P08670); conditions: VIM, Vimentin
T8 construct: Proteins enriched by c-ponatinib from U2OS cell lysate; endogenous in cells; host or cells: U2OS cell lysate
Procedure, shortened: as §1

[9] = target: T9, proteins of U2OS cell lysate (Homo sapiens, UniProt P13861); conditions: PRKAR2A, cAMP-dependent protein kinase type II-alpha regulatory subunit
T9 construct: Proteins enriched by c-ponatinib from U2OS cell lysate; endogenous in cells; host or cells: U2OS cell lysate
Procedure, shortened: as §1

[10] = target: T10, proteins of U2OS cell lysate (Homo sapiens, UniProt P22234); conditions: PAICS, Multifunctional protein ADE2
T10 construct: Proteins enriched by c-ponatinib from U2OS cell lysate; endogenous in cells; host or cells: U2OS cell lysate
Procedure, shortened: as §1

[11] = target: T11, proteins of U2OS cell lysate (Homo sapiens, UniProt P25705); conditions: ATP5A1, ATP synthase subunit alpha, mitochondrial
T11 construct: Proteins enriched by c-ponatinib from U2OS cell lysate; endogenous in cells; host or cells: U2OS cell lysate
Procedure, shortened: as §1

[12] = target: T12, proteins of U2OS cell lysate (Homo sapiens, UniProt P49368); conditions: CCT3, T-complex protein 1 subunit gamma
T12 construct: Proteins enriched by c-ponatinib from U2OS cell lysate; endogenous in cells; host or cells: U2OS cell lysate
Procedure, shortened: as §1

[13] = target: T13, proteins of U2OS cell lysate (Homo sapiens, UniProt P60660); conditions: MYL6, Myosin light polypeptide 6
T13 construct: Proteins enriched by c-ponatinib from U2OS cell lysate; endogenous in cells; host or cells: U2OS cell lysate
Procedure, shortened: as §1

[14] = target: T14, proteins of U2OS cell lysate (Homo sapiens, UniProt P61981); conditions: YWHAG, 14-3-3 protein gamma
T14 construct: Proteins enriched by c-ponatinib from U2OS cell lysate; endogenous in cells; host or cells: U2OS cell lysate
Procedure, shortened: as §1

[15] = target: T15, proteins of U2OS cell lysate (Homo sapiens, UniProt P84090); conditions: ERH, Enhancer of rudimentary homolog
T15 construct: Proteins enriched by c-ponatinib from U2OS cell lysate; endogenous in cells; host or cells: U2OS cell lysate
Procedure, shortened: as §1

[16] = target: T16, proteins of U2OS cell lysate (Homo sapiens, UniProt Q09028); conditions: RBBP4;RBBP7, Histone-binding protein RBBP4
T16 construct: Proteins enriched by c-ponatinib from U2OS cell lysate; endogenous in cells; host or cells: U2OS cell lysate
Procedure, shortened: as §1

[17] = target: T17, proteins of U2OS cell lysate (Homo sapiens, UniProt Q13163); conditions: MAP2K5, Dual specificity mitogen-activated protein kinase kinase 5
T17 construct: Proteins enriched by c-ponatinib from U2OS cell lysate; endogenous in cells; host or cells: U2OS cell lysate
Procedure, shortened: as §1

[18] = target: T18, proteins of U2OS cell lysate (Homo sapiens, UniProt Q9NTJ3); conditions: SMC4, Structural maintenance of chromosomes protein 4
T18 construct: Proteins enriched by c-ponatinib from U2OS cell lysate; endogenous in cells; host or cells: U2OS cell lysate
Procedure, shortened: as §1

[19] = target: T19, proteins of U2OS cell lysate (Homo sapiens, UniProt Q9Y6G9); conditions: DYNC1LI1, Cytoplasmic dynein 1 light intermediate chain 1
T19 construct: Proteins enriched by c-ponatinib from U2OS cell lysate; endogenous in cells; host or cells: U2OS cell lysate
Procedure, shortened: as §1

T3 sequence (Q9UHB6 whole entry): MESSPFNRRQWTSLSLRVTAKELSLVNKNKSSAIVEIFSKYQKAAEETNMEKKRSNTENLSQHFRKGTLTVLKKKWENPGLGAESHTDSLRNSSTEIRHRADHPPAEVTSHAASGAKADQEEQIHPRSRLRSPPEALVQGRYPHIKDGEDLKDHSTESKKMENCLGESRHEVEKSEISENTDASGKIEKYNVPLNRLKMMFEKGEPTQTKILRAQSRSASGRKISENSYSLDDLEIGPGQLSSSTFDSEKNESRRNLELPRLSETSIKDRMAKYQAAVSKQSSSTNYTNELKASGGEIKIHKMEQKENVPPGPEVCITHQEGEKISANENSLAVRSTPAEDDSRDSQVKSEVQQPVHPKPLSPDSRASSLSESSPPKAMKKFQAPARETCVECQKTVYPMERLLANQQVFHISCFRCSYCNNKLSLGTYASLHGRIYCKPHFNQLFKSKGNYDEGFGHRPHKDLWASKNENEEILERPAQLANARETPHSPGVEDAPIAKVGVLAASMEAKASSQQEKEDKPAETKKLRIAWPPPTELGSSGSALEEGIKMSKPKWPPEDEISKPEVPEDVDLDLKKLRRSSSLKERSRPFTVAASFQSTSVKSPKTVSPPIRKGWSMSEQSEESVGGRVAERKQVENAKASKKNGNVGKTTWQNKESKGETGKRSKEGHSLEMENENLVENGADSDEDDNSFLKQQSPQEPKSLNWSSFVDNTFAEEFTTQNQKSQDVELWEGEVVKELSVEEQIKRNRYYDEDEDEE
T4 sequence (O14974 whole entry): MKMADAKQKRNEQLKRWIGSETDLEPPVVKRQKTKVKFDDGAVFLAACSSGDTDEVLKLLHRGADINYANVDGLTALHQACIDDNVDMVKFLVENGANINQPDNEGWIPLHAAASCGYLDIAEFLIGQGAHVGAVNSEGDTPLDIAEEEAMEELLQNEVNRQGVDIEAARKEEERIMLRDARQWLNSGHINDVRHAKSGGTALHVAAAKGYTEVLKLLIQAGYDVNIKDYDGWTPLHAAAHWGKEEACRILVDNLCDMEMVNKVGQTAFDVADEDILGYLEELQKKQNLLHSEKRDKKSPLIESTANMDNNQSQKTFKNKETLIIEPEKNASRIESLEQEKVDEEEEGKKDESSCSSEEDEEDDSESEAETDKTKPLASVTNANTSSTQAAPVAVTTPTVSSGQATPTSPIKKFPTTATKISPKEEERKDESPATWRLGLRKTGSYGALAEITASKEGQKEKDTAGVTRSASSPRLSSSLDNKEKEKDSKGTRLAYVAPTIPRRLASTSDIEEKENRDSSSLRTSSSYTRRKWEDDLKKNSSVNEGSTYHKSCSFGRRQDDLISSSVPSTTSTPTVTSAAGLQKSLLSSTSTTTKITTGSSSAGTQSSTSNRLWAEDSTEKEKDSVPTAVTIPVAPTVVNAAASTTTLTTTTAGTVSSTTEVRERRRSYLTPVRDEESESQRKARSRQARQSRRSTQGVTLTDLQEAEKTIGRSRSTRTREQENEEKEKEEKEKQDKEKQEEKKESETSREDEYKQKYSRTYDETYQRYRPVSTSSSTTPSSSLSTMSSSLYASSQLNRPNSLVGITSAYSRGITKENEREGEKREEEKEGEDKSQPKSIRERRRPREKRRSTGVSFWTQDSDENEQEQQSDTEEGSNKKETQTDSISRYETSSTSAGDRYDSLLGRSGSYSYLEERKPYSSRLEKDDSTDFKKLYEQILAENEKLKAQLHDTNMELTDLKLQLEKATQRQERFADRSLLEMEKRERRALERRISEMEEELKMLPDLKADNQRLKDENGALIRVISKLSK
T9 sequence (P13861 whole entry): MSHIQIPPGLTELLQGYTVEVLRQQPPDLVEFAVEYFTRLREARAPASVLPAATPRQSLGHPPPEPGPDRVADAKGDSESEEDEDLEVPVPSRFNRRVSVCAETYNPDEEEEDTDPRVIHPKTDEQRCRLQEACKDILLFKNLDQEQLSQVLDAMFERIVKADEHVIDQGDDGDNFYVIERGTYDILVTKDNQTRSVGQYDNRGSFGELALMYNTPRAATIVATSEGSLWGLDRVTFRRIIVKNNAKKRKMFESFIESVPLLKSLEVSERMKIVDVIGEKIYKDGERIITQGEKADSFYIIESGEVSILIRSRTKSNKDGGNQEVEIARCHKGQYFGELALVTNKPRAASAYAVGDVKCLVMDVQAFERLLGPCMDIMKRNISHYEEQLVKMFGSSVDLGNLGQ
T17 sequence (Q13163 whole entry): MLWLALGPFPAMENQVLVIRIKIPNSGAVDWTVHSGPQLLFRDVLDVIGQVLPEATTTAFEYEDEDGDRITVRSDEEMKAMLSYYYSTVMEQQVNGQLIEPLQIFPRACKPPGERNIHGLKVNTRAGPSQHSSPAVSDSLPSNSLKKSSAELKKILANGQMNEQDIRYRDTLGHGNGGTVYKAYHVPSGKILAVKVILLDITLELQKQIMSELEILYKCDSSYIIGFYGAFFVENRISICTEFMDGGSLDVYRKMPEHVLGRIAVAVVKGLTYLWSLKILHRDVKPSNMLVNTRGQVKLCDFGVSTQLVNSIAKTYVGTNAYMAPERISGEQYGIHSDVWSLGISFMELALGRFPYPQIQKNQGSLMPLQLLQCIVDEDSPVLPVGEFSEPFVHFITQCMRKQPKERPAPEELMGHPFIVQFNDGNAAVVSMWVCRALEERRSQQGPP
T12 sequence (P49368 whole entry): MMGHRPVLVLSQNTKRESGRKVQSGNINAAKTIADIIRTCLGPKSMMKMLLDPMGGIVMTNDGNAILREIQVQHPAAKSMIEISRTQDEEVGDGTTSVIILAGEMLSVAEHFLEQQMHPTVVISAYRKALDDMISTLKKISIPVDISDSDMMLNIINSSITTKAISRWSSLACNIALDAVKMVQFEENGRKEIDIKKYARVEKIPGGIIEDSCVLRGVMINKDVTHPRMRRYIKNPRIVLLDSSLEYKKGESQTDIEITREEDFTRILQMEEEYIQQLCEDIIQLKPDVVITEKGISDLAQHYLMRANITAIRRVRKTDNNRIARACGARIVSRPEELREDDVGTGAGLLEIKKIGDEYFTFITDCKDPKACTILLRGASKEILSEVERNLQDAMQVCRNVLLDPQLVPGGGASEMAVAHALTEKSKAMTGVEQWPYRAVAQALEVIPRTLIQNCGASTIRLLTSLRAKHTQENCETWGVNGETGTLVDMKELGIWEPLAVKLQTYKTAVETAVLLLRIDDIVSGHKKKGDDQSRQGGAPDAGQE
T15 sequence (P84090 whole entry): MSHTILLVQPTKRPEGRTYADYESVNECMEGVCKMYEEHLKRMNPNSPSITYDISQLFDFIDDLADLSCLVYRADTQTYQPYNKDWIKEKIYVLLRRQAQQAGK
T8 sequence (P08670 whole entry): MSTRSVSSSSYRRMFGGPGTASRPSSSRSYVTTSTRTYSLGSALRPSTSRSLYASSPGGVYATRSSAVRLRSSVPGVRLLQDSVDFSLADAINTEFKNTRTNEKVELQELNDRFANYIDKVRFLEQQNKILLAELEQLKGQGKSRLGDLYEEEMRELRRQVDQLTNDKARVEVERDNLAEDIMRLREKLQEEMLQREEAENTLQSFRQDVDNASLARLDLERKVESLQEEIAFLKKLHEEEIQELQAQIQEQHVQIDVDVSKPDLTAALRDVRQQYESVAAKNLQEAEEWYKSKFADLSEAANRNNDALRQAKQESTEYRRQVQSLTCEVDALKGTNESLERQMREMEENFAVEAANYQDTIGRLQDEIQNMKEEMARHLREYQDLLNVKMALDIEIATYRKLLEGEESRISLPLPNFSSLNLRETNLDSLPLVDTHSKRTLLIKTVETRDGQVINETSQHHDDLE
T14 sequence (P61981 whole entry): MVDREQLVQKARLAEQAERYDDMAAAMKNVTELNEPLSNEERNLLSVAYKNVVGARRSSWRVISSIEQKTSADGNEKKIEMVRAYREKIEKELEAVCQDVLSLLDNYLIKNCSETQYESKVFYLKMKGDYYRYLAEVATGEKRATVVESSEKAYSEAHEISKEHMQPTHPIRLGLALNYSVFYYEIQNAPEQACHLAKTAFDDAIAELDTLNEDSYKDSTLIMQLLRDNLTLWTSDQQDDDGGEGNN
T7 sequence (P04843 24-607): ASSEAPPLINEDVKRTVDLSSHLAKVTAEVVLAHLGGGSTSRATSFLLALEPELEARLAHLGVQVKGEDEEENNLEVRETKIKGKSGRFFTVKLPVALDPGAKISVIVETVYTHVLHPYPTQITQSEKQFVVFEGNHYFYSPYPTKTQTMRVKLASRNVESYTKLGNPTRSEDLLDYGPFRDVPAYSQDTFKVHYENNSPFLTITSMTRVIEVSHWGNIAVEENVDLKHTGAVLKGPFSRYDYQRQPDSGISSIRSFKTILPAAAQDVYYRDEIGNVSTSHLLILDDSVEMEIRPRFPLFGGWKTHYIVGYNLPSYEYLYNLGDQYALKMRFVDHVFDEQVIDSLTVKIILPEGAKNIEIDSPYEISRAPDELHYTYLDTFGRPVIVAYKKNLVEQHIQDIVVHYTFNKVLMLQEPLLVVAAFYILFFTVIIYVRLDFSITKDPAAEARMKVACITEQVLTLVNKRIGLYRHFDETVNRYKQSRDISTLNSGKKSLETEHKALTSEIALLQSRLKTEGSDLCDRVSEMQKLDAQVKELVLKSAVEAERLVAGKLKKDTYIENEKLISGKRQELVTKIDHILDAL
T6 sequence (P04792 whole entry): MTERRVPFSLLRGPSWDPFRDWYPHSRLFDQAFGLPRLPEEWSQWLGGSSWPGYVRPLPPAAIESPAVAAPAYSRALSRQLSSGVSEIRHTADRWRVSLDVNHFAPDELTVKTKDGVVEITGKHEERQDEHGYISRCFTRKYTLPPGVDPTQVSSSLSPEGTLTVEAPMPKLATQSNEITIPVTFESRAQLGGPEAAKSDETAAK
T13 sequence (P60660 whole entry): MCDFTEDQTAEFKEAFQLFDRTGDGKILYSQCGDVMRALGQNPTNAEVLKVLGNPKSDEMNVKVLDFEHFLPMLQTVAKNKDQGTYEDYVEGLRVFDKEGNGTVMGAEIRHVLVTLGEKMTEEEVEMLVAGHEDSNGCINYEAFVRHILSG

Compound	Average LFQ intensity [1]	Average LFQ intensity [2]	Average LFQ intensity [3]	Average LFQ PON_WT [4]	Average LFQ PON_WT [5]	Average LFQ PON_WT [6]	Average LFQ PON_WT [7]	Average LFQ PON_WT [8]	Average LFQ PON_WT [9]	Average LFQ PON_WT [10]	Average LFQ PON_WT [11]	Average LFQ PON_WT [12]	Average LFQ PON_WT [13]	Average LFQ PON_WT [14]	Average LFQ PON_WT [15]	Average LFQ PON_WT [16]	Average LFQ PON_WT [17]	Average LFQ PON_WT [18]	Average LFQ PON_WT [19]
Cc1ccc(C(=O)Nc2ccc(CN3CCN(CCCN)CC3)c(C(F)(F)F)c2)cc1C#Cc1cnc2cccnn12 [c-ponatinib, reference compound]	21.8321	22.7198	23.0824																
Cc1ccc(C(=O)Nc2ccc(CN3CCN(C)CC3)c(C(F)(F)F)c2)cc1C#Cc1cnc2cccnn12 [PON]				20.7589	20.3652	25.081	23.8993	26.7986	19.7853	21.2772	26.7182	23.8873	23.7934	23.8341	21.4936	21.1647	19.6379	21.2975	23.2986
